Our source for the GI50 values is patent US9789086B1, “N-(5-arylamido-2-methylphenyl)-5-methylisooxazole-4-carboxamide deravative, pharmaceutical acceptable salt thereof, method for preparation therof and FMS kinase inhibitor comprising the same as anactive ingredient” (Industry-University Cooperation Foundation Hanyang …, priority 2014, dated 2017).

One experiment concerns A375P cell line. Kind of experiment: A375P cell line proliferation inhibitory activity (MTT assay). In kind it is cell-based. As to conditions: A375P cells, 48 hours treatment. Here is the method: A375P cell lines were purchased from ATCC and cultured in a DMEM culture medium (containing 10% FBS and 1% penicillin/streptomycin) in the presence of 5% CO2 at 37° C. The cultured A375P cell lines were taken from culture substrate with 0.05% trypsin-0.02% EDTA and plated at a density of 5×10^3 cells per well in 96-well plates.
(§1) In order to measure cell viability, MTT [3-(4,5-dimethylthiazole-2-yl)-2,5-diphenyltetrazolium bromide] activity assay method (Thiazolyl Blue Tetrazolium Bromide, Sigma Aldrich) was used. Cell lines were cultured in 96-well plates for 24 hours and treated with the compounds of Examples previously prepared. For the compound treatment, 10 mM stocks were prepared, serially diluted in DMSO and added by 0.5 μL at 8 points (final concentration of 0.5%). The cell lines in plates treated with the compounds was cultured for 48 hours, then 15 μL of dye was added to each well and cultured for 4 hours. Then, 100 μL of DMSO solvent was added to each well, and the formed solid was dissolved to measure the absorbance. The absorbance was read at a wavelength of 570 nm using EnVision 2103, and the GI 50 value was calculated using GraphPad Prism 4.0 software, and the results are shown in Table 1 below.
A general note: Tetrazolium assays rely on reduction of a dye to a coloured formazan, in cell work by metabolically active cells.

In another experiment the test system is U937 cell line. Kind of experiment: U937 cell line proliferation inhibitory activity (MTT assay). The format is cell-based. The following applies: Homo sapiens, U-937, U937 cells. On the procedure:
as §1
U937 cell lines were purchased from ATCC and cultured in a RPMI culture medium (containing 10% FBS, 1% penicillin/streptomycin and 25 mM HEPES) in the presence of 5% CO2 at 37° C. The cell line proliferation inhibitory activity for Examples previously prepared was measured using the same MTT activity assay method as the A375P cell line proliferation inhibitory activity assay in Experimental Example 1.

Usually GI50 stands for the concentration giving 50% growth inhibition. Read a high GI50 as lower sensitivity of the cells.

As to `Cc1ccc(NC(=O)Nc2ccccc2F)cc1NC(=O)c1cnoc1C` [Example 31, N-(5-(3-(2-fluorophenyl)ureido)-2-methylphenyl)-5-methylisoxazole-4-carboxamide], the concentration for 50% growth inhibition (GI50) with A375P cell line and with U937 cell line was 10 to 30 µM throughout.

For `Cc1cc(NC(=O)Nc2ccccc2F)ccc1NC(=O)c1cnoc1C` [Example 38, N-(4-(3-(2-fluorophenyl)ureido)-2-methylphenyl)-5-methylisoxazole-4-carboxamide], the 50% growth inhibitory concentration (GI50) with A375P cell line and with U937 cell line was 10 to 30 µM each time.

Consider `Cc1ccc(NC(=O)c2ccccc2-c2ccccc2)cc1NC(=O)c1cnoc1C` [Example 25, N-(5-biphenyl-2-ylcarboxamido-2-methylphenyl)-5-methylisoxazole-4-carboxamide], for which the GI50 in the experiment on A375P cell line and in the experiment on U937 cell line was 10 to 30 µM in each case.

`Cc1cc(NC(=O)Nc2ccc(Cl)cc2)ccc1NC(=O)c1cnoc1C` [Example 39, N-(4-(3-(4-chlorophenyl)ureido)-2-methylphenyl)-5-methylisoxazole-4-carboxamide]: the concentration for 50% growth inhibition (GI50) with A375P cell line and in the experiment with U937 cell line was 10 to 30 µM throughout.

Turning to `Cc1ccc(NC(=O)Nc2ccc(Cl)c(Cl)c2)cc1NC(=O)c1cnoc1C` [Example 34, N-(5-(3-(3,4-dichlorophenyl)ureido)-2-methylphenyl)-5-methylisoxazole-4-carboxamide], the concentration for 50% growth inhibition (GI50) in the experiment with A375P cell line lay in the range of 10 to 30 µM; in the experiment on U937 cell line, 1 to 10 µM.

As to `Cc1ccc(NC(=O)C(c2ccc(Cl)cc2)c2ccc(Cl)cc2)cc1NC(=O)c1cnoc1C` [Example 13, N-(5-(2,2-bis(4-chlorophenyl)acetamido)-2-methylphenyl)-5-methylisoxazole-4-carboxamide], the GI50 with A375P cell line and with U937 cell line was 10 to 30 µM each time.

Consider `Cc1ccc(NC(=O)c2ccc(Cl)cc2)cc1NC(=O)c1cnoc1C` [Example 7, N-(5-(4-chlorobenzamido)-2-methylphenyl)-5-methylisoxazole-4-carboxamide], for which the GI50 in the experiment on A375P cell line and with U937 cell line was 10 to 30 µM in each case.

For `Cc1ccc(NC(=O)Nc2ccc(Cl)cc2)cc1NC(=O)c1cnoc1C` [Example 28, N-(5-(3-(4-chlorophenyl)ureido)-2-methylphenyl)-5-methylisoxazole-4-carboxamide], the GI50 with A375P cell line and in the experiment with U937 cell line was 10 to 30 µM in each case.

Consider `Cc1ccc(NC(=O)c2cc(N3CCOCC3)cc(C(F)(F)F)c2)cc1NC(=O)c1cnoc1C` [Example 44, 5-methyl-N-(2-methyl-5-(3-morpholino-5-(trifluoromethyl)benzamido)phenyl)isoxazole-4-carboxamide], for which the GI50 in the experiment with A375P cell line was 10 to 30 µM; in the experiment on U937 cell line, < 1 µM.

Regarding `Cc1ccc(NC(=O)c2ccc3[nH]nnc3c2)cc1NC(=O)c1cnoc1C` [Example 18, N-(5-(1H-benzo[d][1,2,3]triazole-5-carboxamido)-2-methylphenyl)-5-methylisoxazole-4-carboxamide], the GI50 with A375P cell line and in the experiment with U937 cell line was 10 to 30 µM each time.

On to `CCCS(=O)(=O)Nc1ccc(NC(=O)c2cnoc2C)c(C)c1` [Example 43, 5-methyl-N-(2-methyl-4-(propylsulfonamido)phenyl)isoxazole-4-carboxamide], for which the 50% growth inhibitory concentration (GI50) in the experiment on A375P cell line and in the experiment on U937 cell line was 10 to 30 µM in each case.

Regarding `Cc1ccc(NC(=O)c2ccncc2)cc1NC(=O)c1cnoc1C` [Example 20, N-(5-(isonicotinamido)-2-methylphenyl)-5-methylisoxazole-4-carboxamide], the GI50 in the experiment on A375P cell line and in the experiment on U937 cell line was 10 to 30 µM throughout.

On to `Cc1ccc(NC(=O)c2cc(-n3cncc3C)cc(C(F)(F)F)c2)cc1NC(=O)c1cnoc1C` [Example 10, 5-methyl-N-(2-methyl-5-(3-(5-methyl-1H-imidazol-1-yl)-5-(trifluoromethyl)benzamido)phenyl)isoxazole-4-carboxamide], for which the concentration for 50% growth inhibition (GI50) with A375P cell line is 10 to 30 µM; with U937 cell line it was < 1 µM.

For `CCCS(=O)(=O)Nc1ccc(C)c(NC(=O)c2cnoc2C)c1` [Example 42, 5-methyl-N-(2-methyl-5-(propylsulfonamido)phenyl)isoxazole-4-carboxamide], the 50% growth inhibitory concentration (GI50) in the experiment on A375P cell line and in the experiment with U937 cell line was 10 to 30 µM each time.

`Cc1ccc(NC(=O)c2ccc3ccccc3n2)cc1NC(=O)c1cnoc1C` [Example 12, 5-methyl-N-(2-methyl-5-(quinoline-2-carboxamido)phenyl)isoxazole-4-carboxamide]: the concentration for 50% growth inhibition (GI50) with A375P cell line and in the experiment with U937 cell line was 10 to 30 µM each time.

`Cc1ccc(NC(=O)Cc2c[nH]c3ccccc23)cc1NC(=O)c1cnoc1C` [Example 16, N-(5-(2-(1H-indol-3-yl)acetamido)-2-methylphenyl)-5-methylisoxazole-4-carboxamide]: the GI50 in the experiment on A375P cell line and in the experiment on U937 cell line was 10 to 30 µM in each case.

Regarding `Cc1ccc(NC(=O)c2cnn(-c3ccccc3)c2C(F)(F)F)cc1NC(=O)c1cnoc1C` [Example 23, 5-methyl-N-(2-methyl-5-(1-phenyl-5-(trifluoromethyl)-1H-pyrazole-4-carboxamido)phenyl)isoxazole-4-carboxamide], the 50% growth inhibitory concentration (GI50) was 10 to 30 µM with A375P cell line and < 1 µM in the experiment with U937 cell line.

As for `Cc1cc(NC(=O)Nc2cccc(C(F)(F)F)c2)ccc1NC(=O)c1cnoc1C` [Example 36, 5-methyl-N-(2-methyl-4-(3-(3-(trifluoromethyl)phenyl)ureido)phenyl)isoxazole-4-carboxamide], the 50% growth inhibitory concentration (GI50) in the experiment on A375P cell line and in the experiment with U937 cell line was 10 to 30 µM each time.

With `Cc1cc(NC(=O)c2ccc(N3CCOCC3)c(C(F)(F)F)c2)ccc1NC(=O)c1cnoc1C` [Example 1, 5-methyl-N-(2-methyl-4-(4-morpholino-3-(trifluoromethyl)benzamido)phenyl)isoxazole-4-carboxamide], the GI50 in the experiment with A375P cell line and with U937 cell line was 10 to 30 µM in each case.

On to `Cc1ccc(NC(=O)Nc2cccc(C(F)(F)F)c2)cc1NC(=O)c1cnoc1C` [Example 29, 5-methyl-N-(2-methyl-5-(3-(3-(trifluoromethyl)phenyl)ureido)phenyl)isoxazole-4-carboxamide], for which the GI50 in the experiment with A375P cell line and in the experiment on U937 cell line was 10 to 30 µM throughout.

For `Cc1ccc(NC(=O)c2ccc(-c3ccccc3)cc2)cc1NC(=O)c1cnoc1C` [Example 26, N-(5-biphenyl-4-ylcarboxamido-2-methylphenyl)-5-methylisoxazole-4-carboxamide], the 50% growth inhibitory concentration (GI50) in the experiment with A375P cell line and with U937 cell line was 10 to 30 µM in each case.

Turning to `Cc1cc(NC(=O)Nc2cccc(Cl)c2)ccc1NC(=O)c1cnoc1C` [Example 37, N-(4-(3-(3-chlorophenyl)ureido)-2-methylphenyl)-5-methylisoxazole-4-carboxamide], the GI50 with A375P cell line and in the experiment on U937 cell line was 10 to 30 µM in each case.

Take `Cc1ccc(NC(=O)c2cnccn2)cc1NC(=O)c1cnoc1C` [Example 17, 5-methyl-N-(2-methyl-5-(pyrazine-2-carboxamido)phenyl)isoxazole-4-carboxamide]: the GI50 with A375P cell line and with U937 cell line was 10 to 30 µM each time.

Turning to `Cc1ccc(NC(=O)Cc2ccc(-c3ccccc3)cc2)cc1NC(=O)c1cnoc1C` [Example 22, N-(5-(2-(biphenyl-4-yl)acetamido)-2-methylphenyl)-5-methylisoxazole-4-carboxamide], the concentration for 50% growth inhibition (GI50) with A375P cell line and in the experiment on U937 cell line was 10 to 30 µM in each case.

As to `Cc1ccc(NC(=O)Nc2cccc(Cl)c2)cc1NC(=O)c1cnoc1C` [Example 32, N-(5-(3-(3-chlorophenyl)ureido)-2-methylphenyl)-5-methylisoxazole-4-carboxamide], the GI50 in the experiment on A375P cell line and in the experiment on U937 cell line was 10 to 30 µM throughout.
